# ChEMBL document CHEMBL4699562, “Design, syntheses and evaluations of novel indole derivatives as orally selective estrogen receptor degraders (SERD)” (Bioorg Med Chem Lett, 2020)
# Active and inactive are the calls of the source. No cut-off for these calls is given here.
# Assays:
# Estrogen receptor [1] = target: T1, Estrogen receptor (Homo sapiens, UniProt P03372); assay: Induction of estrogen receptor degradation in human MCF7 cells; format: cell-based
# T1 sequence (P03372 whole entry): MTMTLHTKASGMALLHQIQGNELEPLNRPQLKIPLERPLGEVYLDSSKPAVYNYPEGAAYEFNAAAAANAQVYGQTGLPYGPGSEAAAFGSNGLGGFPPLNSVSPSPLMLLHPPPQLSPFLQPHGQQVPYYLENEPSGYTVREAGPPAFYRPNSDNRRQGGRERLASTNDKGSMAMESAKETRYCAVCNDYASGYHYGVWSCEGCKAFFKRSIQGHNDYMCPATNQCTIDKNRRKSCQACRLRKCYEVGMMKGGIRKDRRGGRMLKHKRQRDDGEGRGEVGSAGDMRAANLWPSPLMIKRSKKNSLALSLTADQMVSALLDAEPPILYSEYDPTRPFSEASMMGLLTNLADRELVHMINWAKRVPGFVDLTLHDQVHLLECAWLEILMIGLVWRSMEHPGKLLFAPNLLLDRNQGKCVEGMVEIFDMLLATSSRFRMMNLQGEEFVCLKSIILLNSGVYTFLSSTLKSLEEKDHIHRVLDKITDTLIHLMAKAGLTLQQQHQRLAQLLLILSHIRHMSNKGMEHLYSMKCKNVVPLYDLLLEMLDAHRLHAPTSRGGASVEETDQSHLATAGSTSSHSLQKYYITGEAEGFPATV
# Estrogen receptor [2] = target: T1, Estrogen receptor; assay: Binding affinity to estrogen receptor (unknown origin)
# MCF7 [3] = assay: Antiproliferative activity against human MCF7 cells assessed as cell growth inhibition; format: functional, cell-based
# [4] = Oral bioavailability in CD-1 mouse; format: ADME, organism-based; details: in vivo
# MCF7 [5] = assay: Antitumor activity against human MCF7 cells expressing ER xenografted in BALB/c mouse assessed as tumor growth suppression at 20 mg/kg, po qd administered for 21 days; format: functional, organism-based; details: time 21.0 day
# MCF7 [6] = assay: Antitumor activity against human MCF7 cells expressing ER xenografted in BALB/c mouse assessed as tumor growth inhibition at 20 mg/kg, po qd administered for 21 days and measured on day 19 relative to control; format: functional; details: 456 h, time 19 day, read-out: TGI
# [7] = Clearance in CD-1 mouse; format: ADME; details: in vivo
# [8] = Volume of distribution in CD-1 mouse; format: ADME; details: in vivo
# [9] = AUC (0 to last) in CD-1 mouse at 2.5 mg/kg, po; format: ADME, organism-based; parameters: time 0 - last, route oral, dose 2.5 mg/kg; details: in vivo
# [10] = target: Voltage-gated inwardly rectifying potassium channel KCNH2 (Homo sapiens, UniProt Q12809); assay: Inhibition of human ERG by automatic Q-patch assay
# Voltage-gated inwardly rectifying potassium channel KCNH2, sequence (Q12809 whole entry): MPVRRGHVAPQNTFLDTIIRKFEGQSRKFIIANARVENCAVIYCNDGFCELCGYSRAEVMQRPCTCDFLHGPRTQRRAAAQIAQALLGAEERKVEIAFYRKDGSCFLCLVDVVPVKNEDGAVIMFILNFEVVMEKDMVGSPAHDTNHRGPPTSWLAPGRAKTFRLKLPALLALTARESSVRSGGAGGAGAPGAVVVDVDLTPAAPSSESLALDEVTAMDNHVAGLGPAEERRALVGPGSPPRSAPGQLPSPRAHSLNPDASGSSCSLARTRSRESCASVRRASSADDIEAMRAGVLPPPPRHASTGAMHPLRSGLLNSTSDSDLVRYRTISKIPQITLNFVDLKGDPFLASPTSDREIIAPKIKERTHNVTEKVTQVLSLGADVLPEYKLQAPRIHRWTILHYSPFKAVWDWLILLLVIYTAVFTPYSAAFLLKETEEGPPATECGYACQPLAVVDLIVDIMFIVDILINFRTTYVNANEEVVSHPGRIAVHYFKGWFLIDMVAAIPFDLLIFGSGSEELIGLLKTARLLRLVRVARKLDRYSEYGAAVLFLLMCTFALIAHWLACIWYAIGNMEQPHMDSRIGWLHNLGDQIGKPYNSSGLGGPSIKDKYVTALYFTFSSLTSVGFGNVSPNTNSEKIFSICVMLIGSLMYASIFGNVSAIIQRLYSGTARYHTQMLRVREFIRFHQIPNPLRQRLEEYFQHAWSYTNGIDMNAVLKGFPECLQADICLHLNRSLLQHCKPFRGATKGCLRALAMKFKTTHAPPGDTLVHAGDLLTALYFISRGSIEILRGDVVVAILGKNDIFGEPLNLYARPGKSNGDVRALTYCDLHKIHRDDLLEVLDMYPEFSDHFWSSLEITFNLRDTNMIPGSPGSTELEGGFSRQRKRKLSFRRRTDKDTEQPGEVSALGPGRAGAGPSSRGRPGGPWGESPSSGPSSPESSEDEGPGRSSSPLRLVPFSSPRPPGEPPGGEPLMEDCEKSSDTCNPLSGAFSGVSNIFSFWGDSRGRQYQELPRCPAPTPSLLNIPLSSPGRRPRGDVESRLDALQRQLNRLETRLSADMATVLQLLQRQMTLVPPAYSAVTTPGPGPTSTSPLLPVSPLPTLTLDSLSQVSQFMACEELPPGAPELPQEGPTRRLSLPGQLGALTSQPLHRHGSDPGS
Compound,IC50 (Estrogen receptor [1]) [nM],IC50 (Estrogen receptor [2]) [nM],IC50 (MCF7 [3]) [nM],also measured
CC/C(=C(/c1ccc(/C=C/C(=O)O)cc1)c1cc2ccccc2[nH]1)c1ccc(C(F)(F)F)cc1Cl,6,0.98,27,
CC/C(=C(/c1ccc(/C=C/C(=O)O)cc1)c1cc2ccccc2[nH]1)c1cccc(C)c1,69,1.46,140,
CC/C(=C(/c1ccc(/C=C/C(=O)O)cc1)c1cc2ccccc2[nH]1)c1cccc(OC(F)(F)F)c1,68,4.71,282,
CC/C(=C(/c1ccc(/C=C/C(=O)O)cc1)c1cc2ccccc2[nH]1)c1ccc(Cl)cc1C(F)(F)F,2,0.76,4,bioavailability [4]: 52.4%; inhibition (MCF7 [5]): Active; inhibition in vivo at 20 mg/kg (MCF7 [6]): 117%; clearance [7]: 6.86 mL/min/kg; Vd [8]: 1.6 L/kg; AUC(0-t) [9]: 6.36 µM·h; IC50 [10]: > 30 µM
CC/C(=C(/c1ccc(/C=C/C(=O)O)cc1)c1cc2ccccc2[nH]1)c1ccc(C(F)(F)F)cc1,163,,139,
CC/C(=C(/c1ccc(/C=C/C(=O)O)cc1)c1cc2ccccc2[nH]1)c1ccc(C#N)cc1,723,,278,
CC/C(=C(/c1ccc(/C=C/C(=O)O)cc1)c1cc2ccccc2[nH]1)c1ccc(Cl)cc1,271,1.74,343,
C[C@@H]1Cc2c([nH]c3ccccc23)[C@@H](c2c(F)cc(/C=C/C(=O)O)cc2F)N1CC(C)(C)F [AZD-9496],,,0.49,
CC/C(=C(/c1ccc(/C=C/C(=O)O)cc1)c1cc2ccccc2[nH]1)c1ccc(Cl)cc1Cl,9,1.52,11,
CC/C(=C(/c1ccc(/C=C/C(=O)O)cc1)c1cc2ccccc2[nH]1)c1cccc(Cl)c1Cl,495,3.18,898,
CC/C(=C(/c1ccc(/C=C/C(=O)O)cc1)c1cc2ccccc2[nH]1)c1ccccc1C#N,9,0.24,9,
CC/C(=C(/c1ccc(/C=C/C(=O)O)cc1)c1cc2ccccc2[nH]1)c1cccc(C(F)(F)F)c1,131,1.75,325,
CC/C(=C(/c1ccc(/C=C/C(=O)O)cc1)c1cc2ccccc2[nH]1)c1cccc(F)c1C#N,49,0.17,40,
CC/C(=C(/c1ccc(/C=C/C(=O)O)cc1)c1cc2ccccc2[nH]1)c1ccc(C#N)cc1Cl,31,0.17,49,
CC/C(=C(/c1ccc(/C=C/C(=O)O)cc1)c1cc2ccccc2[nH]1)c1ccccc1C(F)(F)F,4,0.87,8,bioavailability [4]: 25.7%; inhibition (MCF7 [5]): Active; inhibition in vivo at 20 mg/kg (MCF7 [6]): 112%; clearance [7]: 5.54 mL/min/kg; Vd [8]: 1.12 L/kg; AUC(0-t) [9]: 4.21 µM·h; inhibition (INH) ([10]; human): Active
CC/C(=C(/c1ccc(/C=C/C(=O)O)cc1)c1cc2ccccc2[nH]1)c1ccc(Cl)c(C(F)(F)F)c1,2450,,2200,
CC/C(=C(/c1ccc(/C=C/C(=O)O)cc1)c1cc2ccccc2[nH]1)c1ccc(OC)cc1,30,0.22,61,
CC/C(=C(/c1ccc(/C=C/C(=O)O)cc1)c1cc2ccccc2[nH]1)c1c(C)cccc1Cl,42,,30,
CC/C(=C(/c1ccc(/C=C/C(=O)O)cc1)c1cc2ccccc2[nH]1)c1ccccc1,66.6,0.28,108,
CC/C(=C(/c1ccc(/C=C/C(=O)O)cc1)c1cc2ccccc2[nH]1)c1ccc(Cl)c(C)c1,1390,,840,
CC/C(=C(/c1ccc(/C=C/C(=O)O)cc1)c1cc2ccccc2[nH]1)c1cc(Cl)ccc1Cl,25,1.4,71,
CC/C(=C(/c1ccc(/C=C/C(=O)O)cc1)c1cc2ccccc2[nH]1)c1ccccc1Cl,29,0.44,42,
CC/C(=C(/c1ccc(/C=C/C(=O)O)cc1)c1cc2ccccc2[nH]1)c1ccc(F)cc1Cl,21,1.6,39,
CC/C(=C(/c1ccc(/C=C/C(=O)O)cc1)c1cc2ccccc2[nH]1)c1ccccc1C,9,0.17,33,
CC/C(=C(/c1ccc(/C=C/C(=O)O)cc1)c1cc2ccccc2[nH]1)c1ccc(Cl)cc1C#N,18,0.16,14,
CC/C(=C(/c1ccc(/C=C/C(=O)O)cc1)c1cc2ccccc2[nH]1)c1ccccc1OC(F)(F)F,93,2.41,206,
